The values below come from patent US20020049223A1, “Quinoline and naphthyridine carboxylic acid antibacterials” (priority 1999, published 2002).

What all share (assay): Assay B: in vitro antibacterial activity, broth microdilution MIC (NCCLS)
Common to all, as to type: cell-based

One test has as its system Escherichia coli JUHL. Particulars: Table 2, Assay B, cation-adjusted Mueller Hinton broth, 35° C., 16 to 20 hr; code D = Escherichia coli JUHL; unit assumed. An outline of the steps:
(§1)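 NCCLS broth microdilution: cation-adjusted MH broth, ~5×10^5 CFU/mL, 35° C, 16–20 hr, visual endpoint of complete growth inhibition. Fastidious strains incubated 20–24 hr, S. pneumoniae with 3% lysed horse blood, H. influenzae with yeast extract, hematin and NAD.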

In test [1] the test system is Haemophilus influenzae DILL AMP R. Particulars: Table 2, Assay B, Mueller Hinton broth with yeast extract, hematin and NAD, 20 to 24 hr; code E = Haemophilus influenzae DILL AMP R; unit assumed. An outline of the steps:
as §1

The test system of test [2] is Streptococcus pneumoniae ATCC 6303. The conditions noted are these: Table 2, Assay B, Mueller Hinton broth with 3% lysed horse blood, 20 to 24 hr; code F = Streptococcus pneumoniae ATCC 6303; unit assumed. Put shortly: as §1
Test [3] concerns Enterococcus faecalis PIU 1967. Particulars: Table 2, Assay B, cation-adjusted Mueller Hinton broth, 35° C., 16 to 20 hr; code B = Enterococcus faecalis PIU 1967; unit assumed. An outline of the steps: as §1
The subject of test [4] is Staphylococcus aureus ATCC 6538P. The conditions noted are these: Table 2, Assay B, cation-adjusted Mueller Hinton broth, 35° C., 16 to 20 hr; code A = Staphylococcus aureus ATCC 6538P; unit assumed. Put shortly:
as §1

Molecules are shown by their SMILES.

In turn, `COc1c(-c2cc3c(s2)CCC(F)(F)C3N)ccc2c(=O)c(C(=O)O)cn(C3CC3)c12` (centres unmarked) [Example 206, 7-(4-amino-5,5-difluoro-4,5,6,7-tetrahydro-1-benzothien-2-yl)-1-cyclopropyl-8-methoxy-4-oxo-1,4-dihydro-3-quinolinecarboxylic acid] yielded an Antibacterial Activity (MIC's), D with Escherichia coli JUHL of 1 µg/mL. Besides, in test [1], the Antibacterial Activity (MIC's), E was found to be 0.5 µg/mL. In test [2], this compound gave an Antibacterial Activity (MIC's), F of 0.5 µg/mL. In addition, in test [3], the Antibacterial Activity (MIC's), B was 0.125 µg/mL. In test [4], this compound gave an Antibacterial Activity (MIC's), A of 0.03 µg/mL.

In turn, `COc1c(-c2cc3c(s2)CCC(C)(CO)C3=O)ccc2c(=O)c(C(=O)O)cn(C3CC3)c12` (centres unmarked) [Example 207, 1-cyclopropyl-7-(5-(hydroxymethyl)-5-methyl-4-oxo-4,5,6,7-tetrahydro-1-benzothien-2-yl)-8-methoxy-4-oxo-1,4-dihydro-3-quinolinecarboxylic acid] displayed an Antibacterial Activity (MIC's), D in the test with Escherichia coli JUHL of 1 µg/mL. This compound yielded an Antibacterial Activity (MIC's), E in test [1] of 0.125 µg/mL. This compound returned an Antibacterial Activity (MIC's), F in test [2] of 0.5 µg/mL. The compound further displayed an Antibacterial Activity (MIC's), B in test [3] of 0.125 µg/mL. In test [4], the Antibacterial Activity (MIC's), A turned out to be 0.015 µg/mL.

The compound `COc1c(-c2cc3c(s2)C(N)CNC3)ccc2c(=O)c(C(=O)O)cn(C3CC3)c12` (centres unmarked) [Example 208, 7-(7-amino-4,5,6,7-tetrahydrothieno[3,2-c]pyridin-2-yl)-1-cyclopropyl-8-methoxy-4-oxo-1,4-dihydro-3-quinolinecarboxylic acid] registered an Antibacterial Activity (MIC's), D in the test with Escherichia coli JUHL of 0.25 µg/mL. The same compound returned an Antibacterial Activity (MIC's), E in test [1] of 0.06 µg/mL. This compound also registered an Antibacterial Activity (MIC's), F in test [2] of 0.25 µg/mL. The compound also displayed an Antibacterial Activity (MIC's), B in test [3] of 0.5 µg/mL. This compound also returned an Antibacterial Activity (MIC's), A in test [4] of 0.125 µg/mL.

As to `COc1c(-c2cc3c(s2)CNCC3O)ccc2c(=O)c(C(=O)O)cn(C3CC3)c12` (centres unmarked) [Example 209, 1-cyclopropyl-7-(4-hydroxy-4,5,6,7-tetrahydrothieno[2,3-c]pyridin-2-yl)-8-methoxy-4-oxo-1,4-dihydro-3-quinolinecarboxylic acid], the Antibacterial Activity (MIC's), D in the test with Escherichia coli JUHL was 0.25 µg/mL. In addition, the Antibacterial Activity (MIC's), E in test [1] amounted to 0.03 µg/mL. In test [2], the Antibacterial Activity (MIC's), F was determined as 0.25 µg/mL. The Antibacterial Activity (MIC's), B in test [3] came to 0.5 µg/mL. For the same compound, the Antibacterial Activity (MIC's), A in test [4] was 0.125 µg/mL.

In the test with Escherichia coli JUHL, `CNC1CCCc2sc(-c3c(F)cc4c(=O)c(C(=O)O)cn(C5CC5)c4c3OC)cc21.Cl` (centres unmarked) [Example 210, 1-cyclopropyl-6-fluoro-8-methoxy-7-(4-(methylamino)-4,5,6,7-tetrahydro-1-benzothien-2-yl)-4-oxo-1,4-dihydro-3-quinolinecarboxylic acid hydrochloride] returned an Antibacterial Activity (MIC's), D of 0.25 µg/mL. This compound showed an Antibacterial Activity (MIC's), E in test [1] of 0.03 µg/mL. Further, the Antibacterial Activity (MIC's), F in test [2] was found to be 0.06 µg/mL. The Antibacterial Activity (MIC's), B in test [3] was determined as 0.125 µg/mL. This compound gave an Antibacterial Activity (MIC's), A in test [4] of 0.06 µg/mL.

Consider `COc1c(-c2cc3c(s2)CCCC3N2CC(N)C2)ccc2c(=O)c(C(=O)O)cn(C3CC3)c12.Cl.Cl` (centres unmarked) [Example 212, 7-[4-(3-amino-1-azetidinyl)-4,5,6,7-tetrahydro-1-benzothien-2-yl]-1-cyclopropyl-8-methoxy-4-oxo-1,4-dihydro-3-quinolinecarboxylic acid dihydrochloride], for which the Antibacterial Activity (MIC's), D in the test on Escherichia coli JUHL was 0.5 µg/mL. In test [1], this compound had an Antibacterial Activity (MIC's), E of 0.25 µg/mL. Moreover, the Antibacterial Activity (MIC's), F in test [2] amounted to 0.125 µg/mL. In test [3], this compound returned an Antibacterial Activity (MIC's), B of 0.5 µg/mL. The same compound yielded an Antibacterial Activity (MIC's), A in test [4] of 0.125 µg/mL.

In the case of `CNC1CCCc2cc(-c3ccc4c(=O)c(C(=O)O)cn(C5CC5)c4c3OC)sc21.Cl` (centres unmarked) [Example 216, 1-cyclopropyl-8-methoxy-7-(7-(methylamino)-4,5,6,7-tetrahydro-1-benzothien-2-yl)-4-oxo-1,4-dihydro-3-quinolinecarboxylic acid hydrochloride], the Antibacterial Activity (MIC's), D with Escherichia coli JUHL was determined as 0.25 µg/mL. The Antibacterial Activity (MIC's), E in test [1] amounted to 0.125 µg/mL. This compound showed an Antibacterial Activity (MIC's), F in test [2] of 0.125 µg/mL. Besides, the Antibacterial Activity (MIC's), B in test [3] worked out at 0.25 µg/mL. In addition, the Antibacterial Activity (MIC's), A in test [4] was 0.06 µg/mL.

In the test on Escherichia coli JUHL, `COc1c(-c2cc3c(s2)C(O)CCC3(C)C)ccc2c(=O)c(C(=O)O)cn(C3CC3)c12` (centres unmarked) [Example 218, 1-cyclopropyl-7-(7-hydroxy-4,4-dimethyl-4,5,6,7-tetrahydro-1-benzothien-2-yl)-8-methoxy-4-oxo-1,4-dihydro-3-quinolinecarboxylic acid] gave an Antibacterial Activity (MIC's), D of 2 µg/mL. Besides, the Antibacterial Activity (MIC's), E in test [1] came out at 0.25 µg/mL. Further, the Antibacterial Activity (MIC's), F in test [2] came to 0.5 µg/mL. The same compound displayed an Antibacterial Activity (MIC's), B in test [3] of 0.25 µg/mL. In test [4], this compound showed an Antibacterial Activity (MIC's), A of 0.06 µg/mL.

Take `COc1c(-c2cc3c(s2)C(N)CCC3(C)C)ccc2c(=O)c(C(=O)O)cn(C3CC3)c12.Cl` (centres unmarked) [Example 222, 7-(7-amino-4,4-dimethyl-4,5,6,7-tetrahydro-1-benzothien-2-yl)-1-cyclopropyl-8-methoxy-4-oxo-1,4-dihydro-3-quinolinecarboxylic acid hydrochloride]: the Antibacterial Activity (MIC's), D in the test with Escherichia coli JUHL was found to be 1 µg/mL. In test [1], this compound had an Antibacterial Activity (MIC's), E of 0.5 µg/mL. Moreover, in test [2], the Antibacterial Activity (MIC's), F was found to be 0.25 µg/mL. Moreover, the Antibacterial Activity (MIC's), B in test [3] is 0.5 µg/mL. This compound displayed an Antibacterial Activity (MIC's), A in test [4] of 0.125 µg/mL.

For the compound `COc1c(-c2cc3c(s2)CCCC3N)c(F)cc2c(=O)c(C(=O)O)cn(C3CC3)c12.Cl` (centres unmarked) [Example 224, 7-(4-amino-4,5,6,7-tetrahydro-1-benzothien-2-yl)-1-cyclopropyl-6-fluoro-8-methoxy-4-oxo-1,4-dihydro-3-quinolinecarboxylic acid hydrochloride], in the test on Escherichia coli JUHL, the Antibacterial Activity (MIC's), D came out at 0.125 µg/mL. For the same compound, the Antibacterial Activity (MIC's), E in test [1] was 0.015 µg/mL. The compound also came in with an Antibacterial Activity (MIC's), F in test [2] of 0.03 µg/mL. Also, in test [3], the Antibacterial Activity (MIC's), B stood at 0.03 µg/mL. The compound further came in with an Antibacterial Activity (MIC's), A in test [4] of 0.015 µg/mL.

`COc1c(-c2cc3c(s2)CNCC3N)ccc2c(=O)c(C(=O)O)cn(C3CC3)c12` (centres unmarked) [Example 225, 7-(4-amino-4,5,6,7-tetrahydrothieno[2,3-c]pyridin-2-yl)-1-cyclopropyl-8-methoxy-4-oxo-1,4-dihydro-3-quinolinecarboxylic acid] registered an Antibacterial Activity (MIC's), D with Escherichia coli JUHL of 1 µg/mL. Besides, the Antibacterial Activity (MIC's), E in test [1] is 0.125 µg/mL. The compound also yielded an Antibacterial Activity (MIC's), F in test [2] of 0.25 µg/mL. Also, in test [3], the Antibacterial Activity (MIC's), B stood at 0.5 µg/mL. The Antibacterial Activity (MIC's), A in test [4] came out at 0.5 µg/mL.

For `COc1c(-c2cc3c(s2)CCCC3(C)C)ccc2c(=O)c(C(=O)O)cn(C3CC3)c12` [Example 227, 1-cyclopropyl-7-(4,4-dimethyl-4,5,6,7-tetrahydro-1-benzothien-2-yl)-8-methoxy-4-oxo-1,4-dihydro-3-quinolinecarboxylic acid], the Antibacterial Activity (MIC's), D in the test with Escherichia coli JUHL is > 64 µg/mL. In addition, the Antibacterial Activity (MIC's), E in test [1] was 2 µg/mL. The Antibacterial Activity (MIC's), F in test [2] is 8 µg/mL. The compound further displayed an Antibacterial Activity (MIC's), B in test [3] of 2 µg/mL. In test [4], this compound displayed an Antibacterial Activity (MIC's), A of 0.5 µg/mL.

In turn, `COc1c(-c2cc3c(s2)C(N)CN(S(C)(=O)=O)C3)ccc2c(=O)c(C(=O)O)cn(C3CC3)c12` (centres unmarked) [Example 230, 7-(7-amino-5-(methylsulfonyl)-4,5,6,7-tetrahydrothieno[3,2-c]pyridin-2-yl)-1-cyclopropyl-8-methoxy-4-oxo-1,4-dihydro-3-quinolinecarboxylic acid] came in with an Antibacterial Activity (MIC's), D in the test with Escherichia coli JUHL of 1 µg/mL. Moreover, the Antibacterial Activity (MIC's), E in test [1] is 0.25 µg/mL. The Antibacterial Activity (MIC's), F in test [2] was determined as 0.125 µg/mL. In test [3], this compound displayed an Antibacterial Activity (MIC's), B of 1 µg/mL. In test [4], this compound gave an Antibacterial Activity (MIC's), A of 0.125 µg/mL.

As to `COc1c(-c2sc3c(c2C)C(N)CCC3)ccc2c(=O)c(C(=O)O)cn(C3CC3)c12.Cl` (centres unmarked) [Example 232, 7-(4-amino-3-methyl-4,5,6,7-tetrahydro-1-benzothien-2-yl)-1-cyclopropyl-8-methoxy-4-oxo-1,4-dihydro-3-quinolinecarboxylic acid hydrochloride], in the test with Escherichia coli JUHL, the Antibacterial Activity (MIC's), D amounted to 0.25 µg/mL. This compound also came in with an Antibacterial Activity (MIC's), E in test [1] of 0.125 µg/mL. The compound further had an Antibacterial Activity (MIC's), F in test [2] of 0.125 µg/mL. Also, the Antibacterial Activity (MIC's), B in test [3] came to 0.5 µg/mL. This compound also yielded an Antibacterial Activity (MIC's), A in test [4] of 0.06 µg/mL.

`COc1c(-c2cc3c(s2)CC(C)(C)CC3O)ccc2c(=O)c(C(=O)O)cn(C3CC3)c12` (centres unmarked) [Example 234, 1-cyclopropyl-7-(4-hydroxy-6,6-dimethyl-4,5,6,7-tetrahydro-1-benzothien-2-yl)-8-methoxy-4-oxo-1,4-dihydro-3-quinolinecarboxylic acid] came in with an Antibacterial Activity (MIC's), D in the test with Escherichia coli JUHL of 2 µg/mL. Further, the Antibacterial Activity (MIC's), E in test [1] came to 0.5 µg/mL. In test [2], this compound yielded an Antibacterial Activity (MIC's), F of 0.5 µg/mL. In addition, the Antibacterial Activity (MIC's), B in test [3] was 0.5 µg/mL. The compound also gave an Antibacterial Activity (MIC's), A in test [4] of 0.03 µg/mL.

`COc1c(-c2cc3c(s2)C(N)C(C)CC3)ccc2c(=O)c(C(=O)O)cn(C3CC3)c12.Cl` (centres unmarked) [Example 235, 7-(7-amino-6-methyl-4,5,6,7-tetrahydro-1-benzothien-2-yl)-1-cyclopropyl-8-methoxy-4-oxo-1,4-dihydro-3-quinolinecarboxylic acid hydrochloride]: the Antibacterial Activity (MIC's), D in the test with Escherichia coli JUHL stood at 0.25 µg/mL. In test [1], this compound had an Antibacterial Activity (MIC's), E of 0.06 µg/mL. In test [2], this compound showed an Antibacterial Activity (MIC's), F of 0.06 µg/mL. The Antibacterial Activity (MIC's), B in test [3] was 0.25 µg/mL. Moreover, the Antibacterial Activity (MIC's), A in test [4] stood at 0.015 µg/mL.
